Among the test systems are RXF 393; TK-10; SNB-19; Malme-3M; UACC-62; HCC 2998; DU-145; OVCAR-8; MDA-MB-231; NCI-H23; SK-MEL-5; PC-3; MDA-N; COLO 205; SK-OV-3; OVCAR-4; CCRF-CEM; SW-620; SK-MEL-2; SN12C.
Common to all, as to assay: growth of human tumour cells (NCI), 48 h

Structures are written as SMILES.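 Growth conditions: 96-well plates. Treatment: test compound, 48 hours, 5 concentrations. Analysis: linear interpolation between bracketing concentrations; unreached endpoints set to highest concentration. Abbreviation: GI50, concentration required for 50% inhibition of growth.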 Activity calls are given as the source filed them. No stated cut-off is given here; in the data, active = GI50 up to about 1.1 µM and inactive = higher.

In the case of `CC12ON=C(c3ccccc3)N1C=CN1C(c3ccccc3)=NOC12` (stereo unspecified), the GI50 was 64.9 µM (inactive) in the assay with RXF 393; > 100 µM (inactive) in the assay on TK-10; > 100 µM (inactive) with SNB-19; > 100 µM (inactive) in the assay on Malme-3M; > 100 µM (inactive) in the assay with UACC-62; > 100 µM (inactive) with HCC 2998. Also, the GI50 is > 100 µM (inactive) in the assay with DU-145; > 100 µM (inactive) with OVCAR-8; > 100 µM (inactive) with MDA-MB-231; > 100 µM (inactive) in the assay on NCI-H23; 13 µM (inactive) in the assay on SK-MEL-5; > 100 µM (inactive) with PC-3. For the same compound, the GI50 is > 100 µM (inactive) in the assay on MDA-N, 37.2 µM (inactive) in the assay on COLO 205 and > 100 µM (inactive) in the assay on SK-OV-3.
Take `Cc1cc2c(cc1C)C(=O)C1(C2)Cc2cc3c(cc2C1=O)CCC3` (stereo unspecified): the GI50 with RXF 393, with TK-10, with OVCAR-4, in the assay with SNB-19, in the assay on Malme-3M and with UACC-62 was > 100 µM (inactive) in each case. For the same compound, the GI50 was > 100 µM (inactive) in the assay on HCC 2998; > 100 µM (inactive) in the assay on DU-145; > 100 µM (inactive) in the assay with OVCAR-8; > 10 µM (inactive) with MDA-MB-231; > 100 µM (inactive) with NCI-H23; > 100 µM (inactive) in the assay on CCRF-CEM. Further, the GI50 with SK-MEL-5, with PC-3, with MDA-N, in the assay with COLO 205, in the assay on SW-620 and in the assay with SK-MEL-2 was > 100 µM (inactive) throughout. In addition, the GI50 with SK-OV-3 and in the assay with SN12C was > 100 µM (inactive) in each case.
As to `O=c1c2cc(Cl)ccc2[nH]c2cc(O)cc(O)c12`, the GI50 with RXF 393, in the assay with TK-10, with OVCAR-4, in the assay with SNB-19, with Malme-3M and with UACC-62 was > 10 µM (inactive) each time. In addition, the GI50 in the assay on HCC 2998 is > 10 µM (inactive); with DU-145, > 10 µM (inactive); in the assay on OVCAR-8, > 10 µM (inactive); in the assay on MDA-MB-231 it was > 10 µM (inactive); with NCI-H23, 9.02 µM (inactive); in the assay on CCRF-CEM, > 10 µM (inactive). Besides, the GI50 with SK-MEL-5, with PC-3, in the assay with MDA-N, in the assay on COLO 205, in the assay with SW-620 and in the assay with SK-MEL-2 was > 10 µM (inactive) in each case. Also, the GI50 in the assay on SK-OV-3 and with SN12C was > 10 µM (inactive) throughout.
Consider `CC#CC(O)(C(=O)OC1CC(C)N(C)C(C)(C)C1)C1CCCC1` (stereo unspecified), for which the GI50 in the assay with RXF 393, with TK-10, with SNB-19, in the assay on Malme-3M, in the assay with UACC-62 and in the assay with HCC 2998 was > 100 µM (inactive) throughout. Further, the GI50 in the assay on DU-145, with OVCAR-8, in the assay on MDA-MB-231, with NCI-H23, with CCRF-CEM and in the assay on SK-MEL-5 was > 100 µM (inactive) each time. For the same compound, the GI50 with PC-3, in the assay with MDA-N, in the assay with COLO 205, with SW-620, with SK-OV-3 and with SN12C was > 100 µM (inactive) throughout.
In the case of `O=C1c2ccccc2C(=O)N1n1c(Cc2ccc([N+](=O)[O-])cc2)n[nH]c1=O`, the GI50 in the assay on RXF 393 is > 100 µM (inactive); with TK-10, > 100 µM (inactive); with SNB-19 it was > 100 µM (inactive); in the assay with Malme-3M, > 100 µM (inactive); in the assay with UACC-62 it was 36.3 µM (inactive); in the assay with HCC 2998 it was > 100 µM (inactive). Besides, the GI50 in the assay on DU-145, with OVCAR-8, in the assay with MDA-MB-231, with NCI-H23, with SK-MEL-5 and in the assay with PC-3 was > 100 µM (inactive) each time. In addition, the GI50 was > 100 µM (inactive) with MDA-N, > 100 µM (inactive) with SW-620, 75.2 µM (inactive) with SK-MEL-2 and > 100 µM (inactive) in the assay on SN12C.
As for `Cc1cc(S(=O)(=O)Nc2n[nH]c(-c3ccc(Cl)cn3)n2)c(S)cc1Cl`, the GI50 was 27.1 µM (inactive) in the assay with RXF 393; > 100 µM (inactive) with TK-10; 53.8 µM (inactive) in the assay with OVCAR-4; 30.1 µM (inactive) in the assay with SNB-19; > 100 µM (inactive) in the assay on Malme-3M; 48.6 µM (inactive) in the assay with UACC-62. Moreover, the GI50 was 57.5 µM (inactive) with HCC 2998; > 100 µM (inactive) with DU-145; 48.8 µM (inactive) in the assay with OVCAR-8; > 100 µM (inactive) in the assay with MDA-MB-231; 44.4 µM (inactive) with SK-MEL-5; > 100 µM (inactive) in the assay on PC-3. Further, the GI50 was 63.4 µM (inactive) in the assay on MDA-N; > 100 µM (inactive) in the assay on COLO 205; 83.6 µM (inactive) with SW-620; 47.5 µM (inactive) in the assay with SK-MEL-2; 88.3 µM (inactive) in the assay on SK-OV-3; > 100 µM (inactive) with SN12C.
Consider `N#Cc1c(N)oc(-c2ccc([N+](=O)[O-])cc2)c1C#N`, for which the GI50 with RXF 393 is 28.6 µM (inactive); in the assay on TK-10 it was 28.4 µM (inactive); in the assay on SNB-19, 27.5 µM (inactive); with Malme-3M, 26.7 µM (inactive); in the assay on UACC-62 it was 39.5 µM (inactive); with HCC 2998, 32.7 µM (inactive). In addition, the GI50 in the assay on DU-145 is 23.6 µM (inactive); in the assay with OVCAR-8 it was 20.5 µM (inactive); in the assay with MDA-MB-231, 22 µM (inactive); in the assay with NCI-H23, 23.8 µM (inactive); in the assay on CCRF-CEM, 67.5 µM (inactive); in the assay on SK-MEL-5, 17 µM (inactive). In addition, the GI50 was 22.5 µM (inactive) in the assay on PC-3; 30.3 µM (inactive) in the assay on MDA-N; 43.9 µM (inactive) in the assay on COLO 205; 58.3 µM (inactive) in the assay on SW-620; 24.3 µM (inactive) in the assay on SK-MEL-2; 45.2 µM (inactive) in the assay with SK-OV-3. For the same compound, the GI50 in the assay with SN12C was 24.2 µM (inactive).
As to `O=CC1C[C@@H](N2C(=O)O[C@@H](c3ccccc3)[C@H]2c2ccccc2)[C@@H]1COCc1ccccc1` (stereo partly specified), the GI50 in the assay on RXF 393 was 18.7 µM (inactive); with TK-10, 20.1 µM (inactive); with OVCAR-4 it was 28.6 µM (inactive); with SNB-19, 19.9 µM (inactive); in the assay on Malme-3M, 17 µM (inactive); in the assay on UACC-62, 16.8 µM (inactive). In addition, the GI50 is 15 µM (inactive) in the assay on HCC 2998; 17.7 µM (inactive) in the assay with DU-145; 21.2 µM (inactive) with OVCAR-8; 15.7 µM (inactive) in the assay on MDA-MB-231; 17.6 µM (inactive) in the assay on NCI-H23; 15.2 µM (inactive) in the assay on SK-MEL-5. For the same compound, the GI50 in the assay with PC-3 is 19.5 µM (inactive); in the assay on MDA-N it was 15 µM (inactive); in the assay on COLO 205 it was 19.9 µM (inactive); in the assay on SW-620, 21.5 µM (inactive); with SK-MEL-2 it was 16.4 µM (inactive); with SN12C, 17 µM (inactive).
Consider `O=C1OC(c2ccccc2)N/C1=C\c1ccc2c(c1)OCO2` (stereo unspecified), for which the GI50 was > 100 µM (inactive) in the assay on RXF 393; > 100 µM (inactive) in the assay on TK-10; 36.7 µM (inactive) with OVCAR-4; > 100 µM (inactive) in the assay with SNB-19; > 100 µM (inactive) in the assay with UACC-62; 54.2 µM (inactive) with HCC 2998. Moreover, the GI50 was > 100 µM (inactive) in the assay on DU-145; 43.5 µM (inactive) in the assay on OVCAR-8; > 100 µM (inactive) with MDA-MB-231; > 100 µM (inactive) with NCI-H23; 33.6 µM (inactive) with CCRF-CEM; > 55.8 µM (inactive) with SK-MEL-5. Further, the GI50 was > 100 µM (inactive) with PC-3; > 75.9 µM (inactive) in the assay on MDA-N; > 100 µM (inactive) with COLO 205; > 88.1 µM (inactive) in the assay on SW-620; > 77.1 µM (inactive) with SK-MEL-2; > 100 µM (inactive) in the assay on SK-OV-3. For the same compound, in the assay with SN12C, the GI50 was > 100 µM (inactive).
As for `CC(=O)n1c2ccc(Br)cc2c2nc3ccccc3nc21`, the GI50 is > 100 µM (inactive) in the assay on RXF 393; > 100 µM (inactive) in the assay on TK-10; 75.3 µM (inactive) in the assay with OVCAR-4; > 100 µM (inactive) with SNB-19; > 100 µM (inactive) in the assay on Malme-3M; > 100 µM (inactive) in the assay on UACC-62. In addition, the GI50 in the assay on HCC 2998, in the assay with DU-145, in the assay with OVCAR-8, in the assay on MDA-MB-231, in the assay on NCI-H23 and in the assay on CCRF-CEM was > 100 µM (inactive) each time. Further, the GI50 with SK-MEL-5, in the assay with PC-3, with MDA-N, in the assay on COLO 205, with SW-620 and with SK-MEL-2 was > 100 µM (inactive) each time. The GI50 with SN12C is > 100 µM (inactive).
In the case of `C/C(=N\Nc1nc2ccccc2n1C)c1ccc2ccccc2n1`, the GI50 is 5.2 µM (inactive) in the assay on RXF 393; 2.53 µM (inactive) in the assay on TK-10; 0.19 µM (active) in the assay with OVCAR-4; 4.66 µM (inactive) in the assay with SNB-19; 1.59 µM (inactive) in the assay on Malme-3M; 2.32 µM (inactive) in the assay with UACC-62. Besides, the GI50 is 0.256 µM (active) in the assay with HCC 2998; 3.86 µM (inactive) in the assay with DU-145; 0.916 µM (active) in the assay on MDA-MB-231; 4.41 µM (inactive) in the assay on NCI-H23; 0.244 µM (active) in the assay with CCRF-CEM; 1.24 µM (inactive) in the assay on SK-MEL-5. Moreover, the GI50 with PC-3 is 0.212 µM (active); with MDA-N, 5.04 µM (inactive); in the assay on COLO 205 it was 0.228 µM (active); with SW-620 it was 0.35 µM (active); with SK-MEL-2 it was 6.56 µM (inactive); with SK-OV-3 it was 12 µM (inactive). Also, in the assay on SN12C, the GI50 is 1.82 µM (inactive).

The values above are taken from ChEMBL document CHEMBL1201862, “PubChem BioAssay data set” (2004).
